Test results from patent US20250144067A1, “PERSONALIZED STARVATION THERAPY FOR CANCER” (Faeth Therapeutics, Inc., priority 2021, published 2025).
Counter-ions that a name gives are not always drawn. Like-named read-outs stand apart in the source and are kept apart here.

How the values were obtained:
[1] = tested on: NCI-H292 lung cancer cells; experiment: FDA drug screening, complete media vs cholesterol-free media with simvastatin (TABLE 2); assay type: cell-based, human
[2] = tested on: NCI-H292 lung cancer cells; experiment: FDA drug screening, complete media vs cholesterol-free media without statin (TABLE 1); assay type: cell-based, human
[3] = NCI-H292 cells, cholesterol-free media with simvastatin 0.04 μM, FDA drug library screen (TABLE 2)
[4] = NCI-H292 cells, complete media, FDA drug library screen (TABLE 2)
[5] = complete media minus cholesterol-free media + simvastatin (0.04 μM), >0 enhanced anti-cancer activity, about 0 neutral, <0 antagonist
[6] = Complete minus Cholesterol-free, greater than 0 enhanced anti-cancer activity, about 0 neutral, below 0 antagonist
[7] = NCI-H292 cells, FDA drug library screen, cholesterol-free media without statin
[8] = NCI-H292 cells, FDA drug library screen, complete media
[9] = NCI-H292 cells, drug in cholesterol-free media with simvastatin 0.04 μM
[10] = NCI-H292 cells, drug in complete media
[11] = complete media vs cholesterol-free media + simvastatin (0.04 μM), >0 enhanced anti-cancer activity, about 0 neutral, <0 antagonist
[12] = NCI-H292 cells, cholesterol-free media without statin
[13] = complete vs cholesterol-free media, greater than 0 enhanced anti-cancer activity, about 0 neutral, below 0 antagonists
[14] = Complete minus Cholesterol-free, >0 enhanced anti-cancer activity, about 0 neutral, <0 antagonist
[15] = NCI-H292 cells, cholesterol-free media without statin, FDA drug library screen
[16] = NCI-H292 cells, complete media, FDA drug library screen
[17] = NCI-H292 cells, FDA drug library screen, cholesterol-free media with simvastatin 0.04 μM
[18] = complete media minus cholesterol-free media + simvastatin, […]
[19] = Complete minus Cholesterol-free, […]
[20] = complete vs cholesterol-free media, >0 enhanced anti-cancer activity, about 0 neutral, <0 antagonist
[21] = complete media minus cholesterol-free media + simvastatin (0.04 μM), […]
[22] = NCI-H292 cells, FDA library drug in cholesterol-free media with simvastatin 0.04 μM
[23] = NCI-H292 cells, FDA library drug in complete media
[24] = Complete minus Cholesterol-free, greater than 0 enhanced anti-cancer activity, about 0 neutral, below 0 antagonists
[25] = NCI-H292 cells in cholesterol-free media without statin
[26] = NCI-H292 cells in complete media
[27] = NCI-H292 cells, cholesterol-free media with simvastatin 0.04 μM, cell growth value in FDA drug screen
[28] = NCI-H292 cells, complete media, cell growth value in FDA drug screen
[29] = complete media minus cholesterol-free media + simvastatin, >0 enhanced anti-cancer activity, about 0 neutral, <0 antagonist
[30] = complete media vs cholesterol-free media + simvastatin (0.04 μM), […]

Lenvatinib (mesylate)
Cholesterol-free media + simvastatin (0.04 μM) [1, 3]: 1.17 | Complete Media [1, 4]: 1.154 | Difference [1, 5]: −0.02 | Difference [2, 6]: −0.10 | Cholesterol-free [2, 7]: 0.845 | Complete [2, 8]: 0.7401

N[C@@H](Cc1c[nH]c2ccc(O)cc12)C(=O)O [5-Hydroxytryptophan]
Cholesterol-free media + simvastatin (0.04 μM) [1, 9]: 1.063 | Complete Media [1, 10]: 0.8252 | Difference [1, 11]: −0.24 | Cholesterol-free [2, 12]: 1.189 | Complete ([2]; NCI-H292 cells, complete media): 0.856 | Difference [2, 13]: −0.33

Nc1ccn([C@@H]2O[C@H](CO)[C@@H](O)C2(F)F)c(=O)n1 [Gemcitabine]
Cholesterol-free media + simvastatin (0.04 μM) [1, 3]: 0.08143 | Complete Media [1, 4]: 0.09095 | Difference [1, 5]: 0.01 | Difference [2, 14]: −0.03 | Cholesterol-free [2, 15]: 0.04572 | Complete [2, 16]: 0.01326

CC[C@@]1(O)C(=O)OCc2c1cc1n(c2=O)Cc2cc3ccccc3nc2-1 [Camptothecin]
Cholesterol-free media + simvastatin (0.04 μM) [1, 17]: −0.11 | Complete Media [1, 8]: 0.07415 | Difference [1, 18]: 0.18 | Difference [2, 19]: −0.01 | Cholesterol-free [2, 15]: 0.0145 | Complete [2, 16]: 0.005875

CC/C=C\C/C=C\C/C=C\C/C=C\C/C=C\C/C=C\CCC(=O)O [Docosahexaenoic Acid]
Cholesterol-free media + simvastatin (0.04 μM) [1, 9]: 1.034 | Complete Media [1, 10]: 0.8041 | Difference [1, 11]: −0.23 | Cholesterol-free [2, 15]: 1.175 | Complete [2, 16]: 1.764 | Difference [2, 20]: 0.59

O=C(CNC(=O)c1ccc(C2=NOC(c3cc(Cl)cc(C(F)(F)F)c3)(C(F)(F)F)C2)c2ccccc12)NCC(F)(F)F (centres unmarked) [Afoxolaner]
Cholesterol-free media + simvastatin (0.04 μM) [1, 17]: 2.42 | Difference [1, 21]: −1.05 | Cholesterol-free [2, 15]: 1.008 | Complete [2, 16]: 1.19 | Difference ([2]; complete vs cholesterol-free media, […]): 0.18

COCCCOc1ccnc(C[S+]([O-])c2nc3ccccc3[n-]2)c1C.[Na+] (centres unmarked) [Rabeprazole (sodium)]
Cholesterol-free media + simvastatin (0.04 μM) [1, 22]: 1.461 | Complete Media [1, 23]: 0.9065 | Difference [1, 11]: −0.55 | Difference [2, 24]: −0.70 | Cholesterol-free [2, 25]: 1.634 | Complete [2, 26]: 0.9326

CC(=O)c1ccc2c(c1)N(CCCN1CCC(CCO)CC1)c1ccccc1S2 [Piperacetazine]
Cholesterol-free media + simvastatin (0.04 μM) [1, 17]: 1.088 | Complete Media [1, 8]: 0.9352 | Difference [1, 11]: −0.15 | Difference [2, 24]: −0.82 | Cholesterol-free [2, 25]: 1.769 | Complete [2, 26]: 0.9455

Lefamulin (acetate)
Cholesterol-free media + simvastatin (0.04 μM) [1, 17]: 1.429 | Complete Media [1, 8]: 1.575 | Difference [1, 18]: 0.15 | Difference [2, 19]: −0.23 | Cholesterol-free [2, 12]: 1.096 | Complete ([2]; NCI-H292 cells, complete media): 0.8619

Nc1nc(N)nc(-c2cc(Cl)ccc2Cl)n1 [Irsogladine]
Cholesterol-free media + simvastatin (0.04 μM) [1, 9]: 1.185 | Complete Media [1, 10]: 0.995 | Difference [1, 11]: −0.19 | Difference [2, 14]: −0.28 | Cholesterol-free [2, 12]: 1.27 | Complete ([2]; NCI-H292 cells, complete media): 0.9941

NC1=NCC2c3ccccc3Cc3ccccc3N12 (centres unmarked) [Epinastine]
Cholesterol-free media + simvastatin (0.04 μM) [1]: 0.9831 | Complete Media [1]: 0.9656 | Difference [1]: −0.02 | Cholesterol-free [2]: 0.9643 | Complete [2]: 0.9792 | Difference [2]: 0.01

O=C(O)c1cc(=O)c2c(OCC(O)COc3cccc4oc(C(=O)O)cc(=O)c34)cccc2o1 [Cromolyn (sodium)]
Cholesterol-free media + simvastatin (0.04 μM) [1, 27]: 0.821 | Complete Media [1, 28]: 0.9131 | Difference [1, 29]: 0.09 | Difference [2, 24]: −0.63 | Cholesterol-free [2, 25]: 1.66 | Complete [2, 26]: 1.032

CC(=O)O[C@]1(C(C)=O)CC[C@H]2[C@@H]3C[C@H](C)C4=CC(=O)CC[C@]4(C)[C@H]3CC[C@@]21C [Medroxyprogesterone acetate]
Cholesterol-free media + simvastatin (0.04 μM) [1, 17]: 1.001 | Complete Media [1, 8]: 0.9291 | Difference [1, 11]: −0.07 | Cholesterol-free [2, 12]: 1.058 | Complete ([2]; NCI-H292 cells, complete media): 0.6058 | Difference [2, 13]: −0.45

CCC(=O)Oc1ccc2c(c1)CC[C@@H]1[C@@H]2CC[C@]2(C)[C@@H](OC(=O)CC)CC[C@@H]12 [Estradiol dipropionate]
Cholesterol-free media + simvastatin (0.04 μM) [1, 22]: 1.891 | Complete Media [1, 23]: 1.522 | Difference [1, 30]: −0.37 | Difference [2, 19]: −0.07 | Cholesterol-free [2, 7]: 0.9963 | Complete [2, 8]: 0.9247

CC(C)C[C@H](NC(=O)[C@@H](O)[C@H](N)Cc1ccccc1)C(=O)O [Bestatin]
Cholesterol-free media + simvastatin (0.04 μM) [1, 22]: 1.263 | Complete Media [1, 23]: 0.9917 | Difference [1, 11]: −0.27 | Cholesterol-free [2, 12]: 1.255 | Complete ([2]; NCI-H292 cells, complete media): 0.8191 | Difference [2, 13]: −0.44

CCN1CCC[C@H]1CNC(=O)c1cc(S(N)(=O)=O)ccc1OC [Levosulpiride]
Cholesterol-free media + simvastatin (0.04 μM) [1, 17]: 0.9156 | Complete Media [1, 8]: 1.092 | Difference [1, 29]: 0.18 | Difference [2, 24]: −0.54 | Cholesterol-free [2, 25]: 1.287 | Complete [2, 26]: 0.7498

O=c1ccc2ccccc2o1 [Coumarin]
Cholesterol-free media + simvastatin (0.04 μM) [1, 3]: 0.8441 | Complete Media [1, 4]: 0.7948 | Difference [1, 5]: −0.05 | Cholesterol-free [2, 15]: 0.9742 | Complete [2, 16]: 1.716 | Difference [2, 20]: 0.74

CCOc1ccc2nc(SCCN3CCOCC3)[nH]c2c1 [Fabomotizole (hydrochloride)]
Cholesterol-free media + simvastatin (0.04 μM) [1, 9]: 1.167 | Complete Media [1, 10]: 0.9459 | Difference [1, 11]: −0.22 | Cholesterol-free [2, 12]: 1.463 | Complete ([2]; NCI-H292 cells, complete media): 1.068 | Difference [2, 13]: −0.39

CO[C@@H]1[C@H](OC(=O)/C=C/C=C/C=C/C=C/C(=O)O)CC[C@]2(CO2)[C@H]1[C@@]1(C)O[C@@H]1CC=C(C)C [Fumagillin]
Cholesterol-free media + simvastatin (0.04 μM) [1, 22]: 1.348 | Complete Media [1, 23]: 1.08 | Difference [1, 30]: −0.27 | Difference [2, 19]: −0.08 | Cholesterol-free [2, 7]: 0.6031 | Complete [2, 8]: 0.519

NC[C@@H]1O[C@H](O[C@H]2[C@@H](O)[C@H](O[C@@H]3[C@@H](O)[C@H](N)C[C@H](N)[C@H]3O[C@H]3O[C@H](CN)[C@@H](O)[C@H](O)[C@H]3N)O[C@@H]2CO)[C@H](N)[C@@H](O)[C@@H]1O.O=S(=O)(O)O [Neomycin (sulfate)]
Cholesterol-free media + simvastatin (0.04 μM) [1, 17]: 0.8549 | Complete Media [1, 8]: 1.021 | Difference [1, 29]: 0.17 | Difference [2, 6]: −0.17 | Cholesterol-free [2, 7]: 1.592 | Complete [2, 8]: 1.421

Nc1ncnc2c1ncn2[C@@H]1O[C@H](COP(=O)(O)OP(=O)(O)OP(=O)(O)O)[C@@H](O)[C@H]1O [ATP]
Cholesterol-free media + simvastatin (0.04 μM) [1, 9]: 1.049 | Complete Media [1, 10]: 0.8041 | Difference [1, 11]: −0.24 | Difference [2, 6]: −0.10 | Cholesterol-free [2, 7]: 1.57 | Complete [2, 8]: 1.466

CC(=O)O[C@H]1Cc2ccccc2N(C(N)=O)c2ccccc21 [Eslicarbazepine acetate]
Cholesterol-free media + simvastatin (0.04 μM) [1, 27]: 1.032 | Complete Media [1, 28]: 1.104 | Difference [1, 29]: 0.07 | Difference [2, 14]: −0.21 | Cholesterol-free [2, 12]: 0.9987 | Complete ([2]; NCI-H292 cells, complete media): 0.7874

Cn1c(=O)c2[nH]c(Br)nc2n(C)c1=O [Pamabrom]
Cholesterol-free media + simvastatin (0.04 μM) [1, 27]: 0.9207 | Complete Media [1, 28]: 0.9433 | Difference [1, 29]: 0.02 | Difference [2, 6]: −0.16 | Cholesterol-free [2, 7]: 0.9285 | Complete [2, 8]: 0.7717

NCC1(CC(=O)O)CCCCC1 [Gabapentin (hydrochloride)]
Cholesterol-free media + simvastatin (0.04 μM) [1, 3]: 1.09 | Complete Media [1, 4]: 1.102 | Difference [1, 21]: 0.01 | Difference [2, 19]: −0.52 | Cholesterol-free [2, 25]: 1.513 | Complete [2, 26]: 0.9969
